Measurements as given in patent US20060068071A1, “Saturated and unsaturated N-alkamides exhibiting taste and flavor enhancement effect in flavor compositions” (priority 2004, published 2006).

Assay: Organoleptic properties (taste profile) of the amides
Description: More specifically, examples of the organoleptic properties for the dienalkylamides of our invention are as follows: […]

[1] = Formula II compounds, at 10 ppm

Compound | Taste profile (Formula II compounds) | further results
CC/C=C\CC/C=C(\C)CNC(C)=O | – | Taste profile (Formula I compounds, at 10 ppm): Potent warming at 10 ppm
CCCCC/C=C\CC/C=C/CNC(=O)C1CC1 | – | Taste profile (Formula I compounds): Oily, moderate umami
C/C=C/C(=O)NC/C=C(/C)CCC=C(C)C | Moderate umami, some saltiness. | –
CC/C=C\CC/C=C/CNC(=O)C1CC1 | – | Taste profile (Formula I compounds): Moderate Umami, off fish oily character
CC(C)=CCC/C(C)=C\CNC(=O)C=C(C)C | – | Taste profile [1]: Clean, weak umami effect at 10 ppm
CC(C)=CCC/C(C)=C/CNC(=O)C=C(C)C | – | Taste profile [1]: Clean, weak umami effect at 10 ppm
CC(C)=CCC/C(C)=C/CNC(=O)C(C)C | Some salt enhancement, umami and strong MSG effect, sweet end profile | –
C/C=C/C(=O)NC/C=C(\C)CCC=C(C)C | Moderate umami, salt like, lemon character. | –
CC(C)=CCC/C(C)=C/CNC(=O)C1CC1 | Salt, MSG, Umami, mouthfeel, lasting sweetness. | –
CC(C)=CCC/C(C)=C\CNC(=O)C(C)C | Salt enhancement, MSG enhancement, Umami, brothy, sweet end profile | –
CC(C)=CCC/C(C)=C\CNC(=O)C1CC1 | Salty, MSG, Umami, brothy, mouthfeel, sweetness. | –
